Measurements: patent US6348468B1, “Pyridazine compounds and compositions containing the same” (Kowa Co., Ltd., priority 1997, dated 2002)

Row | SMILES | melting point
1 | COc1ccc(-c2cc(=O)n(CCCOc3ccccc3)nc2-c2ccc(OC)cc2)cc1 [Example 20, 5,6-bis(4-methoxyphenyl)-2-[3-(phenoxy)propyl]-2H-pyridazin-3-one] | 110 to 111 °C
2 | COc1ccc(-c2cc(=O)n(Cc3ccc(Cl)cc3)nc2-c2ccc(OC)cc2)cc1 [Example 33, 5,6-bis(4-methoxyphenyl)-2-(4-chlorobenzyl)-2H-pyridazin-3-one] | 124.2 to 127.3 °C
3 | COC(=O)c1ccc(Cn2nc(-c3ccc(OC)cc3)c(-c3ccc(OC)cc3)cc2=O)cc1 [Example 42, 5,6-bis(4-methoxyphenyl)-2-(4-methoxycarbonylbenzyl)-2H-pyridazin-3-one] | 185.5 to 186.6 °C
4 | COc1ccc(-c2cc(=O)n(Cc3ccccn3)nc2-c2ccc(OC)cc2)cc1 [Example 43, 5,6-bis(4-methoxyphenyl)-2-(2-pyridylmethyl)-2H-pyridazin-3-one] | 116 to 117 °C
5 | C[S+]([O-])c1ccc(-c2nn(CC3CC3)c(=O)cc2-c2ccc(Cl)cc2)cc1 (stereo not drawn) [Example 86, 5-(4-chlorophenyl)-2-cyclopropylmethyl-6-[4-(methylsulfinyl)phenyl]-2H-pyridazin-3-one] | 152.2 to 152.3 °C
6 | C[S+]([O-])c1ccc(-c2nn(CC3CC3)c(=O)cc2-c2ccc(F)cc2)cc1 (stereo not drawn) [Example 87, 2-cyclopropylmethyl-5-(4-fluorophenyl)-6-[4-(methylsulfinyl)phenyl]-2H-pyridazin-3-one] | 133.3 to 133.5 °C
7 | C[S+]([O-])c1ccc(-c2nn(Cc3ccc(Cl)cc3Cl)c(=O)cc2-c2ccc(Cl)cc2)cc1 (stereo not drawn) [Example 92, 5-(4-chlorophenyl)-2-(2,4-dichlorobenzyl)-6-[4-(methylsulfinyl)phenyl]-2H-pyridazin-3-one] | 236.5 to 237.3 °C
8 | CS(=O)(=O)c1ccc(-c2n[nH]c(=O)cc2-c2ccc(Cl)cc2)cc1 [Example 98, 5-(4-chlorophenyl)-6-[4-(methylsulfonyl)phenyl]-2H-pyridazin-3-one] | 254 to 254.7 °C
9 | CS(=O)(=O)c1ccc(-c2nn(CC3CC3)c(=O)cc2-c2ccc(Cl)cc2)cc1 [Example 99, 5-(4-chlorophenyl)-2-cyclopropylmethyl-6-[4-(methylsulfonyl)phenyl]-2H-pyridazin-3-one] | 139.7 to 139.8 °C
10 | CS(=O)(=O)c1ccc(-c2nn(CC3CC3)c(=O)cc2-c2ccc(F)cc2)cc1 [Example 100, 2-cyclopropylmethyl-5-(4-fluorophenyl)-6-[4-(methylsulfonyl)phenyl]-2H-pyridazin-3-one] | 123.8 to 123.9 °C
11 | CS(=O)(=O)c1ccc(-c2nn(Cc3ccc(F)cc3F)c(=O)cc2-c2ccc(Cl)cc2)cc1 [Example 103, 2-(2,4-difluorobenzyl)-5-(4-chlorophenyl)-6-[4-(methylsulfonyl)phenyl]-2H-pyridazin-3-one] | 173.8 to 173.9 °C
12 | CS(=O)(=O)c1ccc(-c2nn(Cc3ccc(Cl)cc3Cl)c(=O)cc2-c2ccc(Cl)cc2)cc1 [Example 104, 5-(4-chlorophenyl)-2-(2,4-dichlorobenzyl)-6-[4-(methylsulfonyl)phenyl]-2H-pyridazin-3-one] | 232.7 to 234.5 °C
13 | CS(=O)(=O)c1ccc(-c2nn(CCCc3ccccc3)c(=O)cc2-c2ccc(Cl)cc2)cc1 [Example 108, 5-(4-chlorophenyl)-6-[4-(methylsulfonyl)phenyl]-2-(3-phenylpropyl)-2H-pyridazin-3-one] | 70.2 to 71.6 °C
14 | CS(=O)(=O)c1ccc(-c2nn(Cc3ccccc3)c(=O)cc2-c2ccccc2)cc1 [Example 109, 2-benzyl-6-[4-(methylsulfonyl)phenyl]-5-phenyl-2H-pyridazin-3-one] | 211 to 212 °C
15 | COc1ccc(-c2cc(=O)n(Cc3ccc(C(=O)O)cc3)nc2-c2ccc(OC)cc2)cc1 [Example 112, 5,6-bis(4-methoxyphenyl)-2-(4-carboxybenzyl)-2H-pyridazin-3-one] | 241 to 242 °C
16 | COc1ccc(-c2cc(=O)n(CCC(=O)NCc3ccccc3)nc2-c2ccc(OC)cc2)cc1 [Example 115, 5,6-bis(4-methoxyphenyl)-2-[2-(benzylaminocarbonyl)ethyl]-2H-pyridazin-3-one] | 135 to 137 °C
17 | CSc1ccc(C2=NN(Cc3ccccc3)C(=O)CC2c2ccc(Cl)cc2)cc1 (stereo not drawn) [Example 121, 2-benzyl-5-(4-chlorophenyl)-4,5-dihydro-6-[4-(methylthio)phenyl]-2H-pyridazin-3-one] | 113.5 to 113.9 °C
18 | CSc1ccc(-c2n[nH]c(=S)cc2-c2ccc(F)cc2)cc1 [Example 136, 5-(4-fluorophenyl)-6-[4-(methylthio)phenyl]-2H-pyridazine-3-thione] | 218.7 to 218.9 °C

Further lines, results first:

Row | melting point | SMILES
19 | 197.4 to 198.2 °C | CSc1ccc(-c2n[nH]c(=O)cc2-c2ccc(F)cc2)cc1 [Example 9, 5-(4-fluorophenyl)-6-[4-(methylthio)phenyl]-2H-pyridazin-3-one]
20 | 182.1 to 183.1 °C | COc1ccc(-c2cc(=O)n(Cc3ccncc3)nc2-c2ccc(OC)cc2)cc1 [Example 45, 5,6-bis(4-methoxyphenyl)-2-(4-pyridylmethyl)-2H-pyridazin-3-one]
21 | 165 to 167 °C | COc1ccc(-c2nn(Cc3ccccc3)c(=O)cc2-c2ccc(Cl)cc2)cc1 [Example 49, 5-(4-chlorophenyl)-6-(4-methoxyphenyl)-2-benzyl-2H-pyridazin-3-one]
22 | 142 to 143 °C | COc1ccc(-c2nn(Cc3ccncc3)c(=O)cc2-c2ccc(Cl)cc2)cc1 [Example 50, 5-(4-chlorophenyl)-6-(4-methoxyphenyl)-2-(4-pyridylmethyl)-2H-pyridazin-3-one]
23 | 157.4 to 157.5 °C | CSc1ccc(-c2nn(Cc3ccc(F)cc3F)c(=O)cc2-c2ccc(Cl)cc2)cc1 [Example 53, 5-(4-chlorophenyl)-6-[4-(methylthio)phenyl]-2-(2,4-difluorobenzyl)-2H-pyridazin-3-one]
24 | 154.5 to 155 °C | CSc1ccc(-c2nn(Cc3ccc(Cl)cc3Cl)c(=O)cc2-c2ccc(Cl)cc2)cc1 [Example 54, 5-(4-chlorophenyl)-6-[4-(methylthio)phenyl]-2-(2,4-dichlorobenzyl)-2H-pyridazin-3-one]
25 | 109.3 to 110.2 °C | CSc1ccc(-c2nn(CC=Cc3ccccc3)c(=O)cc2-c2ccc(Cl)cc2)cc1 [Example 56, 5-(4-chlorophenyl)-6-[4-(methylthio)phenyl]-2-cinnamyl-2H-pyridazin-3-one]
26 | 165.3 to 165.7 °C | COc1ccc(Cn2nc(-c3ccc(SC)cc3)c(-c3ccc(F)cc3)cc2=O)cc1 [Example 62, 5-(4-fluorophenyl)-6-[4-(methylthio)phenyl]-2-(4-methoxybenzyl)-2H-pyridazin-3-one]
27 | 116 to 116.1 °C | CSc1ccc(Cn2nc(-c3ccc(SC)cc3)c(-c3ccc(F)cc3)cc2=O)cc1 [Example 63, 5-(4-fluorophenyl)-6-[4-(methylthio)phenyl]-2-[4-(methylthio)benzyl]-2H-pyridazin-3-one]
28 | 159.8 to 160.7 °C | CSc1ccc(-c2nn(Cc3cccnc3)c(=O)cc2-c2ccc(F)cc2)cc1 [Example 67, 5-(4-fluorophenyl)-6-[4-(methylthio)phenyl]-2-(3-pyridylmethyl)-2H-pyridazin-3-one]
29 | 157.3 to 158.4 °C | CSc1ccc(-c2nn(Cc3ccccc3)c(=O)cc2-c2ccccc2)cc1 [Example 71, 2-benzyl-6-[4-(methylthio)phenyl]-5-phenyl-2H-pyridazin-3-one]
30 | 143.7 to 144.7 °C | C[S+]([O-])c1ccc(-c2nn(Cc3ccccc3)c(=O)cc2-c2ccc(Cl)cc2)cc1 (stereo not drawn) [Example 85, 2-benzyl-5-(4-chlorophenyl)-6-[4-(methylsulfinyl)phenyl]-2H-pyridazin-3-one]
31 | 81.3 to 81.5 °C | COc1ccc(Cn2nc(-c3ccc([S+](C)[O-])cc3)c(-c3ccc(F)cc3)cc2=O)cc1 (stereo not drawn) [Example 89, 5-(4-fluorophenyl)-2-(4-methoxybenzyl)-6-[4-(methylsulfinyl)phenyl]-2H-pyridazin-3-one]
32 | 155.6 to 155.7 °C | C[S+]([O-])c1ccc(-c2nn(Cc3ccc(F)cc3F)c(=O)cc2-c2ccc(Cl)cc2)cc1 (stereo not drawn) [Example 91, 2-(2,4-difluorobenzyl)-5-(4-chlorophenyl)-6-[4-(methylsulfinyl)phenyl]-2H-pyridazin-3-one]
33 | 103.2 to 105.7 °C | CS(=O)(=O)c1ccc(-c2nn(Cc3ccccc3)c(=O)cc2-c2ccc(Cl)cc2)cc1 [Example 97, 2-benzyl-5-(4-chlorophenyl)-6-[4-(methylsulfonyl)phenyl]-2H-pyridazin-3-one]
34 | 248 to 248.1 °C | CS(=O)(=O)c1ccc(-c2nn(Cc3cccnc3)c(=O)cc2-c2ccc(Cl)cc2)cc1 [Example 106, 5-(4-chlorophenyl)-6-[4-(methylsulfonyl)phenyl]-2-(3-pyridylmethyl)-2H-pyridazin-3-one]
35 | 253.3 to 254.5 °C | CS(=O)(=O)c1ccc(-c2nn(Cc3ccncc3)c(=O)cc2-c2ccc(F)cc2)cc1 [Example 107, 5-(4-fluorophenyl)-6-[4-(methylsulfonyl)phenyl]-2-(4-pyridylmethyl)-2H-pyridazin-3-one]
36 | 176.5 to 176.6 °C | CSc1ccc(-c2nn(Cc3ccc(F)cc3F)c(=S)cc2-c2ccc(Cl)cc2)cc1 [Example 133, 5-(4-chlorophenyl)-2-(2,4-difluorobenzyl)-6-[4-(methylthio)phenyl]-2H-pyridazine-3-thione]
37 | 108.1 to 108.2 °C | CSc1ccc(-c2nn(Cc3ccccc3)c(=S)cc2-c2ccc(F)cc2)cc1 [Example 138, 2-benzyl-5-(4-fluorophenyl)-6-[4-(methylthio)phenyl]-2H-pyridazine-3-thione]
38 | 181.8 to 182 °C | CS(=O)(=O)c1ccc(-c2nn(Cc3ccccc3)c(=S)cc2-c2ccc(F)cc2)cc1 [Example 139, 2-benzyl-5-(4-fluorophenyl)-6-[4-(methylsulfonyl)phenyl]-2H-pyridazine-3-thione]
39 | 112.7 to 112.9 °C | COc1ccc(Cn2nc(-c3ccc(SC)cc3)c(-c3ccc(F)cc3)cc2=S)cc1 [Example 140, 5-(4-fluorophenyl)-2-(4-methoxybenzyl)-6-(4-(methylthio)phenyl]-2H-pyridazine-3-thione]
